In patent publication US20240294478A1, “ANTI-CANCER COMPOUNDS AND METHODS OF USE” (YALE UNIVERSITY, priority 2021, published 2024):

How the values were obtained:
[1] = test system: linearized pUC19 plasmid DNA; assay: In vitro DNA cross-linking assay; type: biochemical; details: 100 μM
Description: Plasmid Linearization Assay. To set up the linearization reactions, 20 units of EcoRI-HF (New England Biolabs) was mixed with 20 μg 2686 bp pUC19 vector DNA in CutSmart buffer (New England Biolabs), pH 7.9, in a total volume of 1000 μL for 30 min at 37° C. The CutSmart buffer contains 50 mM potassium acetate, 20 mM Tris acetate, 10 mM magnesium acetate, and 100 μg/mL BSA. The reacted DNA was then purified using PCR cleanup kit and quantified using the NanoDrop One (Thermo Fisher). The DNA was then stored at −20° C. before use in in vitro DNA cross-linking assays or melting temperature analysis.
In Vitro DNA Cross-linking Assays. Linearized pUC19 DNA, prepared as described above, was used for in vitro DNA cross-linking assays. For each condition, 200 ng of linearized pUC19 DNA (15.4 μM base pairs) was incubated with the indicated concentration of drug in 20 μL. Drug stock concentrations were made in DMSO such that each reaction contained a fixed 5% DMSO concentration. Reactions were conducted in 100 mM Tris buffer (pH 7.4). Cisplatin (Sigma) and DMSO vehicle were used as positive and negative controls, respectively. Reactions were conducted between 3-96 h at 37° C. The DNA was stored at −80° C. until electrophoretic analysis. For gel electrophoresis, DNA concentration was preadjusted to 10 ng/μL. […]

[2] = test system: DLD1 BRCA2+/− and BRCA2−/− cells; assay: Short-term viability assay, DLD1 BRCA2 isogenic model +/- O6BG; type: cell-based, human
Description: FIGS. 8A-8K. (FIG. 8A) Change in percent cells with 1 micronuclei from baseline (DMSO control) after treatment as in FIGS. 5A and 5C. […] (FIG. 8B) Short-term viability assay curves for KL-50 in PD20 cells, deficient in FANCD2 (FANCD2−/−) or complemented with FANCD2 (+FANCD2). (FIG. 8C) Short-term viability assay curves for KL-50 in PEO4 (BRCA2+) and PEO1 (BRCA2−/−) cells pre-treated with 0.01% DMSO control or 10 μM O^6BG (+O^6BG) for 1 h prior to KL-50 addition. (FIG. 8D) Short-term viability assay curves for KL-50 in DLD1 BRCA2+/− and BRCA2−/−cells pre-treated with 0.01% DMSO control or 10 μM O^6BG (+O^6BG) for 1 h prior to KL-50 addition. For FIGS. 8B-8D, points, mean; error bars, SD; n=3 technical replicates. […] Change in percent cells with 1 micronuclei from baseline (DMSO control) after treatment with olaparib (10 μM) for 48 h in LN229 MGMT+/−, MMR+/−cells. […] Western blot analysis of FANCD2 ubiquitination in LN229 MGMT+/−, MMR+/−cells and PD20 FANCD2-deficient cells, complemented with empty vector (FANCD2+EV), wildtype FANCD2 (PD20+FD2) or ubiquitination-mutant FANCD2 (PD20+KR). The % FANCD2 ubiquitination (% FANCD2 Ub) is quantified as the background-corrected integrated band intensity of the upper band divided by the sum of the background-corrected integrated band intensities of the upper and lower bands. The fold change in % FANCD2 ubiquitination is presented for each cell line relative to DMSO-treated cells. Vinculin serves as loading control. For 8J-8K, points, mean; error bars, SD; n=3 technical replicates.
Short-term Cell Viability Assay. Cells were seeded in 96-well plates at 1000 or 2000 cells/well and allowed to adhere at 23° C. for 60 min and then incubated overnight at 37° C. […] Cells were imaged on a Cytation 3 imaging reader (BioTek) and quantified using CellProfiler software. For in vitro short-term growth delay experiments, IC50 values were determined from the nonlinear regression equation, [inhibitor] vs normalized response with variable slope.

[3] = test system: large MGMT−/MMR+ and MGMT−/MSH6− LN229 flank tumors; assay: Flank tumor third study: large tumors; type: in vivo, mouse; details: 25 mg/kg PO MWF x 3 weeks
Excerpt: FIGS. 9A-91: KL-50 is safe and efficacious on both MGMT−/MMR+ and MGMT−/MMR-flank tumors over a wide range of treatment regimens and conditions. […] (FIG. 9C) Mean body weight of mice during LN229 flank tumor experiments. (FIG. 9D) Kaplan-Meier analysis of LN229 MGMT−/MMR− xenograft flank tumor-bearing mice to determine survival rate based on death, removal from study if mouse body weight loss exceeded 20% of initial body weight, or if tumor volume exceeded 2000 mm^3. […] (FIGS. 9H-91) Xenograft LN229 MGMT−/MMR+ and LN229 MGMT−/MSH6—flank tumors with a larger average starting tumor size of −400 mm^3 and −350 mm^3 respectively, treated with 3 weekly cycles of P.O administration of 10% cyclodextrin (n=4) or KL-50 (n=4, 3 cycles of 25 mg/kg on Monday, Wednesday, and Friday). The study period was limited by control groups which had to be euthanized for exceeding the ethical maximum allowed tumor size, thus ending the study. In all panels, points, mean; error bars, SEM; *, P<0.05; **, P<0.01; ***, P<0.001; ****, P<0.0001; ns, not significant.
The third study involved MGMT−/MMR+ and MGMT−/MSH6—(shMSH6) LN229 cells. Mice tumors were allowed to grow to a larger average starting volume of −350 mm^3 before they were randomized and administered either KL-50 (25 mg/kg MWF×3 weeks) or vehicle (10% cyclodextrin) by oral gavage. […]

NC(=O)c1ncn2c(=O)n(CCF)nnc12 [KL-50]
ICLs in plasmid DNA [1]: possessed ICLs, with delayed rates of formation | therapeutic index (TI), ratio of IC50 values in MGMT+/BRCA2+ cells compared to MGMT−/BRCA2− cells ([2]; DLD1 isogenic model): ~600 fold | effect of BRCA2 loss on toxicity ([2]; two MGMT-proficient cell models, following MGMT depletion via O6BG): BRCA2 loss enhanced the toxicity | growth of large (350-400 mm^3) tumors [3]: potently suppressed the growth
